# Assay results: patent publication US4322346A, “5H-2,3-Benzodiazepine derivatives” (priority 1978, dated 1982)
# Entries after “also recorded” stand apart in the source; their conditions may differ.
# Key:
# Format in all cases: in vivo
# mice [1] = assay: General behaviour of mice; conditions: 100 mg/kg i.p. and, resp., 200 mg/kg p.o., SMA = spontaneous motor activity
# Protocol: These compounds decrease the spontaneous motor activity and potentiate the effect of narcotics.
# (§1) The tests were performed on mice. In the examination of the general behaviour the animals were treated intraperitoneally with 100 mg/kg or orally with 200 mg/kg of the compound in question. The fighting behaviour test was performed according to the method of Tedeschi et al. (J. Pharm. Exp. Ther. 25, 28 /1959/). The observations concerning the general behaviour of the animals and the ED50 values obtained in the fighting behaviour test are summarized in Table 1. In these tests 1-(3,4-dimethoxyphenyl)-4-methyl-5-ethyl-7,8-dimethoxy-5H-2,3-benzodiazepine (Grandaxin) was applied as reference substance.
# mice [2] = assay: Fighting behaviour test on mice (method of Tedeschi et al.); conditions: for ED50: Mus musculus, po, mice; for "Fighting behaviour" test on mice, relative activity: relative to Grandaxin (1.0), from ED50 p.o.
# Protocol: as §1
# mice [3] = assay: Narcosis potentiating activity on mice (sodium hexobarbital narcosis); conditions: for Narcosis potentiating activity on mice, Relative activity: relative to Grandaxin (1.0); for change in vivo at 50 mg/kg / change in vivo at 25 mg/kg / change in vivo at 12.5 mg/kg / change in vivo at 100 mg/kg: Mus musculus, po, 30 minutes before 50 mg/kg sodium hexobarbital i.v., prolongation vs control, read-out: Narcosis potentiating activity on mice, Increase, %
# Protocol: When studying the narcosis potentiating effect, the benzodiazepine compounds were administered to mice in oral dosages of 12.5, 25, 50 or 100 mg/kg, and 30 minutes later 50 mg/kg of sodium hexobarbital were injected intravenously into the animals. The percentage prolongation of the narcosis period, compared to the value observed in the control group treated with sodium hexobarbital alone, was calculated. In these tests Grandaxin was applied again as reference substance.
SMILES,General behaviour (mice [1]),ED50 (mice [2]),"""Fighting behaviour"" test on mice, relative activity (mice [2])","Narcosis potentiating activity on mice, Relative activity (mice [3]; 50 mg/kg p.o.)",change in vivo at 50 mg/kg (mice [3]; 50 mg/kg p.o.),"Narcosis potentiating activity on mice, Relative activity (mice [3]; 25 mg/kg p.o.)",change in vivo at 25 mg/kg (mice [3]; 25 mg/kg p.o.),"Narcosis potentiating activity on mice, Relative activity (mice [3]; 12.5 mg/kg p.o.)",change in vivo at 12.5 mg/kg (mice [3]; 12.5 mg/kg p.o.),"Narcosis potentiating activity on mice, Relative activity (mice [3]; 100 mg/kg p.o.)",change in vivo at 100 mg/kg (mice [3]; 100 mg/kg p.o.)
"CCC1C(C)=NN=C(c2ccc(OC)cc2)c2cc(OC)c(OC)cc21 (centres unmarked) [Example 4, 1-(4-methoxyphenyl)-4-methyl-5-ethyl-7,8-dimethoxy-5H-2,3-benzodiazepine]",Decrease of SMA,40 mg/kg,1.6,2.17,248%,–,–,–,–,–,–
"CCC1C(C)=NN=C(c2ccccc2C)c2cc(OC)c(OC)cc21 (centres unmarked) [Example 7, 1-(2-tolyl)-4-methyl-5-ethyl-7,8-dimethoxy-5H-2,3-benzodiazepine]",–,–,–,–,–,3.71,301%,–,–,–,–
"CCCC1C(C)=NN=C(c2ccc(OC)c(OC)c2)c2cc(OC)c(OC)cc21.O (centres unmarked) [Example 10, 1-(3,4-dimethoxyphenyl)-4-methyl-5-n-propyl-7,8-dimethoxy-5H-2,3-benzodiazepine hydrate]",–,–,–,1.62,185%,1.23,100%,–,–,–,–
"CCC1=NN=C(c2ccc(OC)c(OC)c2)c2cc(OC)c(OC)cc2C1CC (centres unmarked) [Example 11, 1-(3,4-dimethoxyphenyl)-4,5-diethyl-7,8-dimethoxy-5H-2,3-benzodiazepine]",–,–,–,1.43,163%,1.65,134%,–,–,–,–
"CCC1C(C)=NN=C(c2ccccc2F)c2cc(OC)c(OC)cc21 (centres unmarked) [Example 14, 1-(2-fluorophenyl)-4-methyl-5-ethyl-7,8 dimethoxy-5H-2,3-benzodiazepine]",–,–,–,6.57,750%,3.16,256%,8.65,147%,–,–
"CCC1C(C)=NN=C(c2ccccc2Cl)c2cc(OC)c(OC)cc21 (centres unmarked) [Example 18, 1-(2-chlorophenyl)-4-methyl-5-ethyl-7,8-dimethoxy-5H-2,3-benzodiazepine]",Strong decrease of SMA,40 mg/kg,1.6,13.33,–,4.65,377%,9.41,160%,–,–
"CCC1C(C)=NN=C(c2ccccc2)c2cc(OC)c(OC)cc21 (centres unmarked) [Example 22, 1-phenyl-4-methyl-5-ethyl-7,8-dimethoxy-5H-2,3-benzodiazepine]",Decrease of SMA; also recorded: catalepsy,35 mg/kg,1.8,3.20,364%,2.23,181%,–,–,–,–
"CCC1C(C)=NN=C(c2ccc(O)c(OC)c2)c2cc(OC)c(OC)cc21 (centres unmarked) [Example 24, 1-(3-methoxy-4-hydroxyphenyl)-4-methyl-5-ethyl-7,8-dimethoxy-5H-2,3-benzodiazepine]",–,–,–,1.16,132%,–,–,–,–,–,–
"CCC1C(C)=NN=C(c2ccc(OC)c(OC)c2)c2cc(OC)c(OC(C)C)cc21 (centres unmarked) [Example 33, 1-(3,4-dimethoxyphenyl)-4-methyl-5-ethyl-7-isopropoxy-8-methoxy-5H-2,3-benzodiazepine]",–,–,–,3.90,445%,3.01,244%,–,–,–,–
"CCC(C)Oc1cc2c(cc1OC)C(c1ccc(OC)c(OC)c1)=NN=C(C)C2CC (centres unmarked) [Example 35, 1-(3,4-dimethoxyphenyl)-4-methyl-5-ethyl-7-sec.butoxy-8-methoxy-5H-2,3-benzodiazepine]",Decrease of SMA,60 mg/kg,1.1,1.52,173%,1.11,90%,–,–,3.26,780%
"CCOc1cc2c(cc1OC)C(c1ccc(OC)c(OC)c1)=NN=C(C)C2CC (centres unmarked) [Example 36, 1-(3,4-dimethoxyphenyl)-4-methyl-5-ethyl-7-ethoxy-8-methoxy-5H-2,3-benzodiazepine]",–,–,–,2.44,278%,1.62,132%,–,–,–,–
"CCCOc1cc2c(cc1OC)C(c1ccc(OC)c(OC)c1)=NN=C(C)C2CC (centres unmarked) [Example 37, 1-(3,4-dimethoxyphenyl)-4-methyl-5-ethyl-7-n-propoxy-8-methoxy-5H-2,3-benzodiazepine]",Strong decrease of SMA,40 mg/kg,1.6,–,–,–,–,–,–,–,–
"COc1cc2c(cc1OC)C(c1cccc(Cl)c1)=NN=C(C)C2 [Example 39, 1-(3-Chlorophenyl)-4-methyl-7,8-dimethoxy-5H-2,3-benzodiazepine]",Strong decrease of SMA,16 mg/kg,4.0,–,–,4.25,344%,7.94,135%,–,–
"COc1cc2c(cc1OC)C(C)C(C)=NN=C2c1cccc(Cl)c1 (centres unmarked) [Example 40, 1-(3-Chlorophenyl)-4,5-dimethyl-7,8-dimethoxy-5H-2,3-benzodiazepine]",Decrease of SMA,50 mg/kg,1.3,0.79,90%,–,–,–,–,0.91,218%
"COc1cc2c(cc1OC)C(c1cccc(F)c1)=NN=C(C)C2 [Example 41, 1-(3-Fluorphenyl)-4-methyl-7,8-dimethoxy-5H-2,3-benzodiazepine]",Decrease of SMA,37 mg/kg,1.7,1.80,205%,–,–,–,–,1.60,383%
"CCC1C(C)=NN=C(c2cccc(F)c2)c2cc(OC)c(OC)cc21 (centres unmarked) [Example 42, 1-(3-Fluorphenyl)-4-methyl-5-ethyl-7,8-dimethoxy-5H-2,3-benzodiazepine]",Decrease of SMA,40 mg/kg,1.6,3.04,347%,2.52,204%,–,–,–,–
"COc1cc2c(cc1OC)C(c1ccccc1OC)=NN=C(C)C2 [Example 43, 1-(2-Methoxyphenyl)-4-methyl-7,8-dimethoxy-5H-2,3-benzodiazepine]",Decrease of SMA,36 mg/kg,1.8,–,–,2.89,234%,–,–,–,–
"COc1cc2c(cc1OC)C(c1cccc(C(F)(F)F)c1)=NN=C(C)C2 [Example 44, 1-(3-Trifluoromethyl-phenyl)-4-methyl-7,8-dimethoxy-5H-2,3-benzodiazepine]",Strong decrease of SMA,22 mg/kg,2.9,–,–,3.63,294%,8.82,150%,–,–
"COc1cc2c(cc1OC)C(c1ccco1)=NN=C(C)C2 [Example 45, 1-(2-Furyl)-4-methyl-7,8-dimethoxy-5H-2,3-benzodiazepine]",Decrease of SMA,50 mg/kg,1.3,–,–,3.09,250%,–,–,–,–
"COc1cccc(C2=NN=C(C)Cc3cc(OC)c(OC)cc32)c1 [Example 46, 1-(3-Methoxyphenyl)-4-methyl-7,8-dimethoxy-5H-2,3-benzodiazepine]",Strong decrease of SMA,50 mg/kg,1.3,–,–,3.70,300%,8.24,140%,–,–
